In ChEMBL document CHEMBL5647690, “Inhibition of demethylases by GSK-J1/J4” (Nature, 2014) one finds IC50 data, which are given here for 1 molecule.

Assay [1] has as its target T1, Lysine-specific demethylase 3A (Homo sapiens, UniProt Q9Y4C1).
T1 sequence (Q9Y4C1 whole entry): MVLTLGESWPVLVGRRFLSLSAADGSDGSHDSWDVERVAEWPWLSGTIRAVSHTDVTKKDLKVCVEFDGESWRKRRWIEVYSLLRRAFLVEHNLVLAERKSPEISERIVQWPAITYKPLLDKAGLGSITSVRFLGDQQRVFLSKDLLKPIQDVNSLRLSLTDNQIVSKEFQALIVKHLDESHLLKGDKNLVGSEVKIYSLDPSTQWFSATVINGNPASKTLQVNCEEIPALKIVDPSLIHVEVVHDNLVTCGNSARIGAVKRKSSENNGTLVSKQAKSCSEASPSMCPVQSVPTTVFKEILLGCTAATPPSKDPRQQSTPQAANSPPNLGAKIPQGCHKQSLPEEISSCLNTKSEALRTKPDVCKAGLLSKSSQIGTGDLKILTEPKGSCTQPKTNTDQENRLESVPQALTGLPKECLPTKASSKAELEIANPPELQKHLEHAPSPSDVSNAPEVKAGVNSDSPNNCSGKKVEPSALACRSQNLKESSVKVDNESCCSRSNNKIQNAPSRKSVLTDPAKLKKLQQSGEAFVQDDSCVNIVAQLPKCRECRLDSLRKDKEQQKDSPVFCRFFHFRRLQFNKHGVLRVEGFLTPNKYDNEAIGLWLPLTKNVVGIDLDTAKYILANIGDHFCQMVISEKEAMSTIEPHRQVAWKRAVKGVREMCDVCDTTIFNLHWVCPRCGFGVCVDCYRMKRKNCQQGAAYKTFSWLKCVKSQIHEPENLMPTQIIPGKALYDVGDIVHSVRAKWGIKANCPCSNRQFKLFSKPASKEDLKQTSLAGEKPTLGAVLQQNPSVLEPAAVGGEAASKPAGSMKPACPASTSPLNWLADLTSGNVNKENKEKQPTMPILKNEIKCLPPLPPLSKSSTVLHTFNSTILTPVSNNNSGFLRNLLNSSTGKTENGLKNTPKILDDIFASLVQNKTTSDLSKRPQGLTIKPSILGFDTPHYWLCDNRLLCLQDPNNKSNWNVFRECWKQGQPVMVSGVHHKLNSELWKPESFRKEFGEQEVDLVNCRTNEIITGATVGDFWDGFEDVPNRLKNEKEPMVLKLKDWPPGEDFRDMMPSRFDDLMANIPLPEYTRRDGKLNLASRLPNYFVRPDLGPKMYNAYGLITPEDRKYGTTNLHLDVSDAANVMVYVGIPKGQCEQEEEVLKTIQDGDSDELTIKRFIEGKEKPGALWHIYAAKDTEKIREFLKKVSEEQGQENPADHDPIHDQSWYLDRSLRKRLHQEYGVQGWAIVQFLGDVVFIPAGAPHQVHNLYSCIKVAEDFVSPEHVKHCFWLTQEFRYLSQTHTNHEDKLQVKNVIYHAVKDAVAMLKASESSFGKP
Briefly: Inhibition of KDM3A (2 to 1322 residues)(unknown origin) by Alphalisa assay. A general note: Bead proximity is the source of the signal in Alpha formats.

Assay [2] has as its target T2, Lysine-specific demethylase 4C (Homo sapiens, UniProt Q9H3R0).
T2 sequence (Q9H3R0 whole entry): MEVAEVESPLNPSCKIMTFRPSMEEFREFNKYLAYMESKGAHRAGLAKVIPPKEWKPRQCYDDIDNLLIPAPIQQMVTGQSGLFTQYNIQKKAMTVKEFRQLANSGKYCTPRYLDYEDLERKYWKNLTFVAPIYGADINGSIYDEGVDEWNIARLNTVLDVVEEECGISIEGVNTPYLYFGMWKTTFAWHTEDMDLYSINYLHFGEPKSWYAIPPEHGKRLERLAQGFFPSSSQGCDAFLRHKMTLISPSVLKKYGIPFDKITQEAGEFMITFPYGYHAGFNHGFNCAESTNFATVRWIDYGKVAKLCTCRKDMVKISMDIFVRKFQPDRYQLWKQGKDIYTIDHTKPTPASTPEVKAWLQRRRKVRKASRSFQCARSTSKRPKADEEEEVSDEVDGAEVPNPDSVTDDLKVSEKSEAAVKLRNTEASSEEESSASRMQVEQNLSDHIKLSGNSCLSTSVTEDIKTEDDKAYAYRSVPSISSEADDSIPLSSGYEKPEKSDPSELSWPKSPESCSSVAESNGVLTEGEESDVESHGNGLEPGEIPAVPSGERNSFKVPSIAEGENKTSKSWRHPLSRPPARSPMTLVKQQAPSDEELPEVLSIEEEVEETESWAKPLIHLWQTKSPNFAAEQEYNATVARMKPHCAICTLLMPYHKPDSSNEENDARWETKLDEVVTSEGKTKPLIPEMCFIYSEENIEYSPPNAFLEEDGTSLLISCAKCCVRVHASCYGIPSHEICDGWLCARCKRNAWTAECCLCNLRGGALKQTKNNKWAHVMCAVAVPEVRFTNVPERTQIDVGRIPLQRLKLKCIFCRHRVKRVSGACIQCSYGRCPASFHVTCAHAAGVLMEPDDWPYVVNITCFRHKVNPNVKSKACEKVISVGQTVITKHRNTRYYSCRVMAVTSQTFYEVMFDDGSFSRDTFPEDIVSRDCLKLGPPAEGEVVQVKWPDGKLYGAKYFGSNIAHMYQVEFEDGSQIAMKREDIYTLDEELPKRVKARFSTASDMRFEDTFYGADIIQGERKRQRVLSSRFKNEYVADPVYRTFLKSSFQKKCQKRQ
Briefly: Inhibition of epitope-tagged full length KDM4C (unknown origin) transfected in human U2OS cells using H3K9me3 peptide as substrate. In kind it is cell-based.

What is called IC50 is the concentration that inhibits the measured activity by half. Take `CCOC(=O)CCNc1cc(N2CCc3ccccc3CC2)nc(-c2ccccn2)n1`: the IC50 was found to be 8.5 µM in assay [1] and 7.3 µM in assay [2].
